The series can be described thus: gradient 5% acetonitrile 3 min, to 50% in 2 min, to 85% in 15 min, held 3 min, 100 µL/min. The note with it: column: Zorbax Extend-C18 2.1 x 50 mm; eluents: water / acetonitrile, 0.1% formic acid. An outline of the steps:
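The mobile phases were water and acetonitrile, each with 0.1% formic acid, pumped at 100 μL/min through a Zorbax Extend-C18 column (2.1 × 50 mm, 1.8 μm). Pure standards were injected as mixtures of ~100 molecules and detected by a quadrupole time-of-flight mass spectrometer in positive and negative ionization mode. Retention time came from computationally picked adduct peaks, each inspected by hand.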
`Cc1c(CNCc2ccco2)c(C(=O)O)c(C)n1Cc1ccccc1Cl` gave an RP-LC retention time of 720 s. In the case of `CCc1nc(-c2cc(S(=O)(=O)N3CCC(C(=O)NC4CC4)CC3)c(C)s2)no1` it was 744 s; in that of `Cc1cccc2c(=O)n(C3CCN(C(=O)Nc4ccccc4)CC3)cnc12`, 751 s; in that of `COc1ccc(NC(=O)c2sc(-c3cn(C(C)C)c4ncccc34)nc2C)cc1`, 902 s. In the case of `O=C(CN1CCCC(COCc2ccccc2)C1)NCc1ccc2c(c1)OCO2` (stereo not drawn) it was 592 s.

As to `Cn1nc(-c2nc(C3CC3)no2)c2c1CCN(C(=O)Nc1ccc(F)cc1)C2`, the RP-LC retention time worked out at 768 s.

Molecule `CCc1cc(C2CCCN2Cc2ccc(OC)c(O)c2)on1` (stereo not drawn) registered an RP-LC retention time of 588 s. In the case of `O=C1CCN(C(=O)c2cccs2)CCOCCN1` it was 585 s; in that of `CCn1c(=O)n(CC(=O)N2CCN(c3ccccn3)CC2)c(=O)c2cnc(-c3ccccc3)nc21`, 697 s; in that of `CCOC(=O)c1cnc2c(-c3ccc(Cl)cc3)c(CC)nn2c1N`, 1280 s. In the case of `CC(C)c1ccc(C(=O)N2CCC(COc3ccc(C(=O)NC4CC4)cc3)CC2)cc1` it was 947 s; in that of `COC(=O)c1ccccc1NC(=O)N(Cc1cc(=O)[nH]c2ccccc12)CC(C)C`, 943 s; in that of `Cc1ccc(-n2nc(C)c3sc(N4CCCC(C(=O)Nc5cc(Cl)ccc5C)C4)nc32)cc1` (stereo not drawn), 1360 s. In turn, `Cc1cccc(Nc2c(-c3ccc(N(C)C)cc3)nc3ncccn23)c1` registered an RP-LC retention time of 745 s. In the case of `CCOC(=O)c1nc(Nc2ccc(C)cc2C)c2ccccc2n1`, the RP-LC retention time came out at 831 s.

Consider `O=c1n(Cc2cc(F)cc(F)c2)nc2c(S(=O)(=O)N3CCCCCC3)cccn12`, for which the RP-LC retention time was 973 s.

In turn, `Cc1cccc(NC(=O)C2CCN(S(=O)(=O)c3ccc4c(c3)sc(=O)n4C)CC2)c1` showed an RP-LC retention time of 910 s. Molecule `CC(NC(=O)c1ccco1)c1nc(-c2ccc(N3CCCC3)cc2)no1` (stereo not drawn) gave an RP-LC retention time of 941 s. In the case of `O=C1COc2ccccc2N1Cc1nc(-c2ccccc2Cl)no1` it was 995 s. In the case of `CCOc1ccc(-c2ccc(=O)n(CCNC(=O)c3sc(C)nc3C)n2)cc1` it was 672 s; in that of `COc1ccc(CNC(=O)CN2CCN(Cc3ccc(F)cc3)C2=O)c(OC)c1`, 793 s; in that of `COC(=O)c1c(C)[nH]c(C(=O)N2CCC(CC(=O)NCCC(C)N3CCCC3)CC2)c1C` (stereo not drawn), 578 s. In the case of `Cc1nc2c(c(N3CCSCC3)n1)CCC2` it was 588 s. As to `O=C(Nc1ccc2c(c1)OCO2)C1CCN(C(=O)C2Sc3ccccc3NC2=O)CC1` (stereo not drawn), the RP-LC retention time turned out to be 736 s. Take `O=C(Cn1c(=O)c2cccn2c2ccc(F)cc21)N1CCOCC1`: the RP-LC retention time stood at 686 s.

The molecule `CC(C)(C)c1ccc(C(=O)NC2CCN(c3cc(-c4ccccc4)[nH]n3)C2)cc1` (stereo not drawn) yielded an RP-LC retention time of 872 s.

Regarding `CS(=O)(=O)N1CCN(C(=O)Cc2csc(Nc3ncccn3)n2)CC1`, the RP-LC retention time turned out to be 601 s. In the case of `Cc1ccc(Nc2c(-c3cccc([N+](=O)[O-])c3)nc3cc(C)ccn23)cc1` it was 794 s; in that of `CC(O)C1CCN(Cc2ccc(Br)o2)CC1` (stereo not drawn), 566 s; in that of `O=c1oc2c(-c3ccc([N+](=O)[O-])cc3)cc(O)cc2s1`, 829 s. `COc1ccc(C(=O)N2C[C@@H]3C[C@H](NS(C)(=O)=O)[C@H]2C3)c(C)c1` registered an RP-LC retention time of 629 s. Regarding `CC(CCc1ccccc1)NC(=O)Cc1nnc(-c2ccccn2)o1` (stereo not drawn), the RP-LC retention time worked out at 744 s. In the case of `COc1ccc(OC)c(NC2=NS(=O)(=O)C(c3ccccc3)=C2C)c1` it was 948 s.

The values above are taken from the METLIN SMRT retention time set (Domingo-Almenara et al. 2019).
